Data as given in ChEMBL document CHEMBL6071177, “Medium-Ring Keto Bislactams with Antischistosomal Activity” (J Med Chem, 2024).
≈ marks a conversion by molar mass, not a printed value.

Key:
[1] = Intrinsic clearance in human liver microsomes
[2] = Lipophilicity, logD of compound at pH 7.4 by HPLC analysis; type: physicochemical; details: buffer
[3] = Solubility of compound in 0.01 M HCl at pH 2.0 by nephelometry; type: physicochemical
[4] = Cytotoxicity against rat L6 cells; type: toxicity, cell-based
[5] = Solubility of compound in phosphate buffer at pH 6.5 by nephelometry; type: physicochemical
Schistosoma mansoni [6] = assay: Anti-schistosomal activity against adult Schistosoma mansoni assessed as parasite viability at 10 uM measured after 3 days relative to control; type: functional; details: time 3 day
Schistosoma mansoni [7] = assay: Anti-schistosomal activity against newly transformed Schistosoma mansoni assessed as parasite viability at 10 uM measured after 3 days relative to control; type: functional; details: time 3 day
[8] = Intrinsic clearance in mouse liver microsomes
[9] = Half life in Swiss mouse at 100 mg/kg, po measured upto 48 hrs by LC-MS analysis; type: ADME, organism-based; details: in vivo
[10] = Cmax in Swiss mouse at 100 mg/kg, po measured upto 48 hrs by LC-MS analysis; type: ADME, organism-based; details: in vivo
[11] = AUC (0 to 24 hrs) in Swiss mouse at 100 mg/kg, po measured upto 48 hrs by LC-MS analysis; type: ADME, organism-based; details: in vivo
Schistosoma mansoni [12] = assay: Ex vivo anti-schistosomal activity against adult Schistosoma mansoni assessed as inhibition of parasite viability measured after 3 days; type: functional, organism-based; details: 72 h

CLH [1] | logD [2] | solubility kinetic [3] | solubility kinetic [5] | CLH [8] | t1/2 [9] | Cmax [10] | AUC [11] | IC50 (Schistosoma mansoni [12]) | SMILES | IC50 [4] | Activity (Schistosoma mansoni [6]) | Activity (Schistosoma mansoni [7])
34 µL/min/mg | 1.7 | 160 µM (≈ 51.3 µg/mL) | 160 µM (≈ 51.3 µg/mL) | 136 µL/min/mg | – | – | – | – | CC12C(=O)Nc3ccccc3C(=O)CCN1C(=O)c1ccccc12 (configuration not stated) | > 300 µM | 35% | 25%
101 µL/min/mg | 1.8 | 160 µM (≈ 54.5 µg/mL) | > 320 µM | 413 µL/min/mg | – | – | – | – | O=C1CCN2C(=O)c3ccccc3C2C(=O)Nc2ccc(Cl)cc21 (configuration not stated) | 220 µM | 40% | 38%
22.3 µL/min/mg | 1.4 | > 320 µM | > 320 µM | 43.7 µL/min/mg | – | – | – | – | O=C1CCN2C(=O)[C@H]3CCCC[C@H]3C2C(=O)Nc2ccccc21 (some centres not stated) | 220 µM | 25% | 50%
21.5 µL/min/mg | 1.7 | 160 µM (≈ 54.8 µg/mL) | > 320 µM | 35.6 µL/min/mg | – | – | – | – | O=C1CCN2C(=O)c3ccccc3C2C(=O)Nc2cc(F)cc(F)c21 (configuration not stated) | 200 µM | 40% | 23%
57.1 µL/min/mg | 1.5 | > 320 µM | > 320 µM | 280 µL/min/mg | – | – | – | – | COc1ccc2c(c1)C(=O)CCN1C(=O)c3ccccc3C1C(=O)N2 (configuration not stated) | 130 µM | 42% | 50%
– | 2 | 160 µM (≈ 60.5 µg/mL) | 160 µM (≈ 60.5 µg/mL) | – | – | – | – | – | O=C1CCN2C(=O)c3c(F)c(F)c(F)c(F)c3C2C(=O)Nc2ccccc21 (configuration not stated) | 98 µM | 30% | 36%
55.5 µL/min/mg | 1.7 | 80 µM (≈ 29.1 µg/mL) | 160 µM (≈ 58.3 µg/mL) | 102 µL/min/mg | – | – | – | – | COC(=O)[C@@H]1CC(=O)c2ccccc2NC(=O)C2c3ccccc3C(=O)N21 (some centres not stated) | > 270 µM | 27% | 50%
21.7 µL/min/mg | 1.8 | > 320 µM | > 320 µM | 38.2 µL/min/mg | – | – | – | – | O=C1CCn2c(nc3ccccc3c2=O)C(=O)Nc2ccccc21 | 52 µM | 20% | 31%
71 µL/min/mg | 1.9 | > 320 µM | > 320 µM | 174 µL/min/mg | – | – | – | – | CN1C(=O)C2c3ccccc3C(=O)N2CCC(=O)c2ccccc21 (configuration not stated) | > 300 µM | 39% | 23%
27 µL/min/mg | 1.2 | 160 µM (≈ 49 µg/mL) | > 320 µM | 84 µL/min/mg | 4.4 h | 189 ng/mL | 810 ng·h/mL | 2.5 µM | O=C1CCN2C(=O)c3ccccc3C2C(=O)Nc2ccccc21 (configuration not stated) | > 330 µM | 61% | 51%
55.6 µL/min/mg | 2 | 40 µM (≈ 15.1 µg/mL) | 40 µM (≈ 15.1 µg/mL) | 118 µL/min/mg | – | – | – | – | CCOC(=O)c1ccc2c(c1)C(=O)CCN1C(=O)c3ccccc3C1C(=O)N2 (configuration not stated) | > 260 µM | 38% | 21%
– | 1.4 | 160 µM (≈ 51.9 µg/mL) | 160 µM (≈ 51.9 µg/mL) | – | – | – | – | – | O=C1CCN2C(=O)c3ccccc3C2C(=O)Nc2cc(F)ccc21 (configuration not stated) | > 300 µM | 39% | 15%
4.6 µL/min/mg | 1 | 80 µM (≈ 27.4 µg/mL) | > 160 µM | 11.6 µL/min/mg | – | – | – | – | O=C1Nc2ccccc2C2(O)CCN3C12c1ccccc1S3(=O)=O (configuration not stated) | > 290 µM | 61% | 47%
20.7 µL/min/mg | 1.2 | 160 µM (≈ 58.6 µg/mL) | > 320 µM | 37.4 µL/min/mg | – | – | – | – | COc1cc2c(cc1OC)C1C(=O)Nc3ccccc3C(=O)CCN1C2=O (configuration not stated) | 150 µM | 38% | 23%
19.6 µL/min/mg | 0.8 | 80 µM (≈ 26.9 µg/mL) | 80 µM (≈ 26.9 µg/mL) | 61.6 µL/min/mg | – | – | – | – | O=C1C[C@@H](CO)N2C(=O)c3ccccc3C2C(=O)Nc2ccccc21 (some centres not stated) | 230 µM | 47% | 38%
97.4 µL/min/mg | 2.3 | > 320 µM | > 320 µM | 212 µL/min/mg | – | – | – | – | O=C1CCN2C(=O)c3cc4ccccc4cc3C2C(=O)Nc2ccccc21 (configuration not stated) | 98 µM | 40% | 48%
35.7 µL/min/mg | 1.5 | 160 µM (≈ 46.8 µg/mL) | > 320 µM | 100 µL/min/mg | – | – | – | – | O=C1Nc2ccccc2CCCN2C(=O)c3ccccc3C12 (configuration not stated) | > 340 µM | 31% | 48%
11 µL/min/mg | 2 | 40 µM (≈ 13 µg/mL) | 40 µM (≈ 13 µg/mL) | 45.8 µL/min/mg | – | – | – | – | O=c1c2c([nH]c3ccccc13)C1c3ccccc3S(=O)(=O)N1C2 (configuration not stated) | 200 µM | 47% | 22%
– | 3 | > 320 µM | > 320 µM | – | – | – | – | – | O=C(C1CCCCC1)N1CC(=O)N2CCc3ccccc3C2C1 (configuration not stated) [PRAZIQUANTEL] | – | 100% | 78%
– | 2.4 | 80 µM (≈ 30 µg/mL) | 160 µM (≈ 60 µg/mL) | – | – | – | – | – | O=C1CCN2C(=O)c3cc(Cl)c(Cl)cc3C2C(=O)Nc2ccccc21 (configuration not stated) | 190 µM | 40% | 31%
23.2 µL/min/mg | 1.4 | 80 µM (≈ 25.8 µg/mL) | 160 µM (≈ 51.6 µg/mL) | 90.5 µL/min/mg | – | – | – | – | COC1CCN2C(=O)c3ccccc3C2C(=O)Nc2ccccc21 (configuration not stated) | > 310 µM | 31% | 25%
– | 1.7 | > 320 µM | 160 µM (≈ 54.8 µg/mL) | – | – | – | – | – | O=C1CCN2C(=O)c3cc(F)c(F)cc3C2C(=O)Nc2ccccc21 (configuration not stated) | > 290 µM | 34% | 37%
< 7 µL/min/mg | 0.9 | 40 µM (≈ 12.3 µg/mL) | 40 µM (≈ 12.3 µg/mL) | < 7 µL/min/mg | – | – | – | – | O=C1c2ccccc2C23C(=O)Nc4ccccc4C2(O)CCN13 (configuration not stated) | > 330 µM | 48% | 18%
45.4 µL/min/mg | 1.4 | 160 µM (≈ 51.9 µg/mL) | > 320 µM | 258 µL/min/mg | – | – | – | – | O=C1CCN2C(=O)c3ccccc3C2C(=O)Nc2ccc(F)cc21 (configuration not stated) | > 310 µM | 40% | 30%
13.2 µL/min/mg | 1.6 | > 320 µM | > 320 µM | 80.3 µL/min/mg | – | – | – | – | CO/N=C1/CCN2C(=O)c3ccccc3C2C(=O)Nc2ccccc21 (configuration not stated) | > 300 µM | 41% | 33%
– | 1.7 | 80 µM (≈ 27.4 µg/mL) | 160 µM (≈ 54.8 µg/mL) | – | – | – | – | – | O=C1CCN2C(C(=O)Nc3ccccc31)c1ccccc1S2(=O)=O (configuration not stated) | 130 µM | 44% | 27%
17 µL/min/mg | < 0 | 160 µM (≈ 41.3 µg/mL) | > 320 µM | 35 µL/min/mg | – | – | – | – | O=C1CCN2C(=O)CCC2C(=O)Nc2ccccc21 (configuration not stated) | > 390 µM | 31% | 13%
